Laboratory results as given in patent publication US6916801B2, “7-Alkylidene-3-substituted-3-cephem-4-carboxylates as β-lactamase inhibitors” (Alamx, LLC, priority 2001, dated 2005).
Where two headings read alike, the source gives them in different places.

Assays:
[1] = target: TEM-1, a Class A penicillinase (Escherichia coli, UniProt P62593); test: beta-lactamase inhibition, relative IC50 analysis by nitrocefin hydrolysis (class A enzyme); format: biochemical; settings: class A β-lactamase; 10 minute incubation of enzyme (2.56 nM) and inhibitor; nitrocefin substrate
Experimental: (§1) Representative compounds of formula (I) were evaluated as inhibitors of the Class C β-lactamase of Enterobacter cloacae P-99, a cephalosporinase, and TEM-1, a Class A penicillinase, by relative IC50 analysis. The IC50 value represents the concentration of inhibitor required to effect a 50% loss of activity of free enzyme. The IC50 value of each compound was determined as follows. Following a 10 minute incubation of a dilute solution of enzyme (2.56 nM) and inhibitor (<0.64 mM), a […] of this incubation mixture was then further diluted into 1 mL nitrocefin solution, and the rate of hydrolysis was measured during a 1 minute period by monitoring the absorbance of nitrocefin as a function of time.

[2] = target: Class C β-lactamase of Enterobacter cloacae P-99, a cephalosporinase (Enterobacter cloacae, UniProt P05364); test: biochemical
Experimental: as §1

[3] = class C β-lactamase, 10 minute incubation of enzyme (2.56 nM) and inhibitor, nitrocefin substrate, read-out: P99 (IC50, μm)

Chain of Class C β-lactamase of Enterobacter cloacae P-99, a cephalosporinase (P05364 21-381): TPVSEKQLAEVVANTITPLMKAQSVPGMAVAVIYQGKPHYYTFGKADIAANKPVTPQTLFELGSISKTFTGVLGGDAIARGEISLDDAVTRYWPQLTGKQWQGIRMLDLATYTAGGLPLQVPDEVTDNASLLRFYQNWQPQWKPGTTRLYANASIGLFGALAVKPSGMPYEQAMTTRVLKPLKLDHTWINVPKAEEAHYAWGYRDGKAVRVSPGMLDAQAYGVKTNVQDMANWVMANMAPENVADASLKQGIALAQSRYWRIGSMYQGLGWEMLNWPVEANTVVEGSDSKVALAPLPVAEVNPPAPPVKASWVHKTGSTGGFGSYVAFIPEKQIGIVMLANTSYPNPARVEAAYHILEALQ
Chain of TEM-1, a Class A penicillinase (P62593 24-286 limits assumed): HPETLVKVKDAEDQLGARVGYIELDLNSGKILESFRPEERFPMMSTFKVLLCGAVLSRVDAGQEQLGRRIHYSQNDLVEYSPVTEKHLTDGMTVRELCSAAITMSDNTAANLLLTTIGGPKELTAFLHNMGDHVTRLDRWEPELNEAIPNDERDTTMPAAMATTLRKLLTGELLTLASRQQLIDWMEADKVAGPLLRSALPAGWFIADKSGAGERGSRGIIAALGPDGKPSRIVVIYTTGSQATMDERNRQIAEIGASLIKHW

SMILES | IC50 [1] [nM] | IC50 [2, 3] [nM] | IC50 [2] [nM]
O=C(O)C1=C(Cl)CS(=O)(=O)C2C(=Cc3ccccn3)C(=O)N12 (centres unmarked) [Compound 7a, Sodium 3-chloro-1,1-dioxo-7-(2′-pyridylmethylidine)-3-cephem-4-carboxylate] | 1820 | 3 | –
O=C(O)C1=C(Br)CS(=O)(=O)C2C(=Cc3ccccn3)C(=O)N12 (centres unmarked) [Compound 7b, Sodium 3-bromo-1,1-dioxo-7-(2′-pyridylmethylidine)-3-cephem-4-carboxylate] | 791 | – | 2.9
O=C(O)C1=C(I)CS(=O)(=O)C2C(=Cc3ccccn3)C(=O)N12 (centres unmarked) [Compound 7c, Sodium 1,1-dioxo-3-iodo-7-(2′-pyridylmethylidine)-3-cephem-4-carboxylate] | 1280 | – | 4.7
CSC1=C(C(=O)O)N2C(=O)C(=Cc3ccccn3)C2S(=O)(=O)C1 (centres unmarked) [Compound 9a, Sodium 1,1-dioxo-3-methylsulfanyl-7-(2′-pyridylmethylidine)-3-cephem-4-carboxylate] | 1060 | – | 59
O=C(O)C1=C(Sc2ccccc2)CS(=O)(=O)C2C(=Cc3ccccn3)C(=O)N12 (centres unmarked) [Compound 9b, Sodium 1,1-dioxo-3-phenylsulfanyl-7-(2′-pyridylmethylidine)-3-cephem-4-carboxylate] | 12 | 21.7 | –
O=C(O)C1=C(c2cccs2)CS(=O)(=O)C2C(=Cc3ccccn3)C(=O)N12 (centres unmarked) [Compound 9c, Sodium 1,1-dioxo-7-(2′-pyridylmethylidine)-3-(thiophen-2′-yl)-3-cephem-4-carboxylate] | 3540 | – | 43
O=C(O)C1=C(c2ccccc2)CS(=O)(=O)C2C(=Cc3ccccn3)C(=O)N12 (centres unmarked) [Compound 9d, Sodium 1,1-dioxo-3-phenyl-7-(2′-pyridylmethylidine)-3-cephem-4-carboxylate] | 9140 | 38 | –
CS(=O)(=O)C1=C(C(=O)O)N2C(=O)C(=Cc3ccccn3)C2S(=O)(=O)C1 (centres unmarked) [Compound 11a, Sodium 1,1-dioxo-3-methylsulfonyl-7-(2′-pyridylmethylidine)-3-cephem-4-carboxylate] | 7.6 | – | 90.7
O=C(O)C1=C(S(=O)(=O)c2ccccc2)CS(=O)(=O)C2C(=Cc3ccccn3)C(=O)N12 (centres unmarked) [Compound 11b, Sodium 1,1-dioxo-3-phenylsulfonyl-7-(2′-pyridylmethylidine)-3-cephem-4-carboxylate] | 9.4 | – | 174
O=C(O)C1=C(F)CS(=O)(=O)C2C(=Cc3ccccn3)C(=O)N12 (centres unmarked) [Compound 14a, Sodium 1,1-dioxo-3-fluoro-7-(2′-pyridylmethylidine)-3-cephem-4-carboxylate] | 1840 | 11 | –
O=C(O)C1=CCS(=O)(=O)C2C(=Cc3ccccn3)C(=O)N12 (centres unmarked) [Compound 14b, Sodium 1,1-dioxo-7-(2 ′-pyridylmethylidine)-3-cephem-4-carboxylate] | 18500 | – | 116
O=C(C=CC1=C(C(=O)O)N2C(=O)C(=Cc3ccccn3)C2S(=O)(=O)C1)NC1CC1 (centres unmarked) [Compound 18a] | 240 | 824 | –
O=C(C=CC1=C(C(=O)O)N2C(=O)C(=Cc3ccccn3)C2S(=O)(=O)C1)NO (centres unmarked) [Compound 18b, Sodium 3-(N-hydroxy-2′-carbamoylvinyl)-1,1-dioxo-7-(2″-pyridylmethylidine)-3-cephem-4-carboxylate] | 7690 | – | 128
NNC(=O)C=CC1=C(C(=O)O)N2C(=O)C(=Cc3ccccn3)C2S(=O)(=O)C1 (centres unmarked) [Compound 21a] | 390 | 1100 | –
NCCCNC(=O)C=CC1=C(C(=O)O)N2C(=O)C(=Cc3ccccn3)C2S(=O)(=O)C1 (centres unmarked) [Compound 21b, Sodium 3-{[N-(3″-aminopropyl)-2′-carbamoyl]vinyl)}-1,1-dioxo-7-(2′″-pyridylmethylidine-3-cephem-4-carboxylate] | 1590 | 4200 | –
CN1CCN(C(=O)C=CC2=C(C(=O)O)N3C(=O)C(=Cc4ccccn4)C3S(=O)(=O)C2)CC1 (centres unmarked) [Compound 21c, Sodium 3-[3 ′-(4″-methylpiperazin-1″-yl)-3′-oxopropenyl]-1,1-dioxo-7-(2′″-puridylmethylidine)-3-cephem-4-carboxylate] | 53 | – | 6340
